From US7709526B2, “Use of cyclolignans and new cyclolignans” (Biovitrum AB, priority 2001, dated 2010)
Read-outs that look alike come from different tables or passages of the source.

Columns and labels:
BE melanoma cells = assay: Cell viability (XTT), BE; format: cell-based; conditions: Homo sapiens, 48 h
Procedure: (§1) Cell proliferation kit II (Roche Inc.) is based on calorimetric change of the yellow tetrazolium salt XTT in orange formazan dye by the respiratory chain of viable cells (Roehm, N W, et al., J Immunol Methods 142:257-265, 1991). Cells seeded at a concentration of 5000/well in 100 μl medium in a 96-well plate were treated with different drugs in the given concentration. After 24 or 48 h the cells were incubated, according to the manufacturer's protocol, with XTT labelling mixture. After 4 h the formazan dye is quantified using a scanning multiwell spectrophotometer with a 495-nm filter. The absorbance is directly correlated with number of viable cells. The standard absorbance curve was drawn by means of untreated cells seeded at a concentration of from 1000 to 10 000 cells/well with an increasing rate of 1000 cells/well. All standards and experiments were performed in triplicates.
(§2) 5 different types of cell lines were seeded in 96-well plates (medium volume in a well was 100 μl), at a concentration of 10,000 cells/cm^2 in Minimal Essential Medium supplemented with fetal calf serum. When the cells had reached a concentration of 65,000 cells/cm^2, they were treated with different doses of podophyllotoxin and deoxypodophyllotoxin for 48 h. Cell viability was then assayed (see above). […]

FM55 melanoma cells = assay: Cell viability (XTT), FM55; format: cell-based, human; conditions: Homo sapiens
Procedure: as §1
5 different types of cell lines were seeded in 96-well plates (medium volume in a well was 100 μl), at a concentration of 10,000 cells/cm^2 in Minimal Essential Medium supplemented with fetal calf serum. When the cells had reached a concentration of 65,000 cells/cm^2, they were treated with different doses of podophyllotoxin and deoxypodophyllotoxin for 48 h. Cell viability was then assayed (see above). IC50 values for each inhibitor and cell line, calculated as the concentration, resulting in a 50% decrease in cell survival, are shown below. The results are based on 4 different experiments.
FM55 melanoma cells were cultured in the same way as described in Experiment 3 and were treated with different doses of podophyllotoxin analogues as described in Experiment 3.

[1] = test system: MCF-7 breast cancer cells; assay: Cell viability (XTT), MCF-7; format: cell-based, human; conditions: Homo sapiens, MCF7, 48 h
Procedure: as §1, §2

[2] = test system: PC-3 prostate cancer cells; assay: Cell viability (XTT), PC-3; format: cell-based; conditions: Homo sapiens, 48 h
Procedure: as §1, §2

[3] = test system: HL60 acute myeloid leukemia cells; assay: Viability of leukemia cells, HL60; format: cell-based, human; conditions: Homo sapiens, HL-60; HL60, 72 h; read-out: IC50 for viability of leukemia cell lines
Procedure: (§3) The human chronic myeloid leukemia K562/S and K562/Vcr30 lines and the acute myeloid leukemia cell lines HL60/0 and HL60/Nov were obtained from ATCC. The K562/S and HL60/0 are wild type (non-resistant) cells, whereas K562/Vcr30 and HL60/Nov are cytostatic-resistant sublines. All leukemia cell lines were cultured in RPMI 1640 medium supplemented with 10% fetal bovine serum and with 2 mM glutamine, 1% benzyl-penicillin and streptomycin. The cells were grown in tissue culture flasks maintained at 95% air/5% CO2 atmosphere at 37° C. in a humidified incubator. For the experiments 25,000 cells were cultured in 60-mm plastic dishes or 96-well plastic plates. The experiments on leukemia cells were performed in collaboration with Associate professor Sigurd Vitols, Department of Pharmacology, Karolinska Hospital (Stockholm, Sweden).
as §1
(§4) The leukemia cell lines K562/S, K562/Vcr 30, HL60/0 and HL60/Nov were proven to express the IGF-1R. This was assayed by Western blotting analysis, as described in Methods and Experiment 1 and 2. The 4 leukemia cell lines were seeded in 96-well plates (medium volume in a well was 100 μl), in RPMI40 medium supplemented with fetal calf serum. After 24 h podophyllotoxin, deoxypodophyllotoxin and other derivatives were added at different concentrations for 72 h. Cell viability was then assayed (see above). IC50 values for each inhibitor and cell lines are shown below (Table 5). The results are based on 3 different experiments.

[4] = test system: HL60/Nov acute myeloid leukemia cells (cytostatic-resistant); assay: Viability of leukemia cells, HL60/Nov; format: cell-based, human; conditions: Homo sapiens, HL-60, 72 h, read-out: IC50 for viability of leukemia cell lines
Procedure: as §3, §1, §4

Water solubility = format: physicochemical
[5] = biological target: insulin receptor tyrosine kinase (Homo sapiens, UniProt P06213); assay: Interference with insulin receptor tyrosine kinase; format: cell-based
[6] = biological target: receptor of epidermal growth factor (Homo sapiens, UniProt P00533); assay: Tyrosine phosphorylation of epidermal growth factor receptor; format: cell-based
[7] = test system: receptor of platelet-derived growth factor; assay: Tyrosine phosphorylation of platelet-derived growth factor receptor; format: cell-based
[8] = test system: receptor of fibroblast growth factor; assay: Tyrosine phosphorylation of fibroblast growth factor receptor; format: cell-based
malignant cells = assay: Cell death in malignant cells; format: cell-based
microtubules = conditions: cell free systems; cited from earlier work
rats = conditions: cited from earlier work

receptor of epidermal growth factor, sequence (P00533 25-1210): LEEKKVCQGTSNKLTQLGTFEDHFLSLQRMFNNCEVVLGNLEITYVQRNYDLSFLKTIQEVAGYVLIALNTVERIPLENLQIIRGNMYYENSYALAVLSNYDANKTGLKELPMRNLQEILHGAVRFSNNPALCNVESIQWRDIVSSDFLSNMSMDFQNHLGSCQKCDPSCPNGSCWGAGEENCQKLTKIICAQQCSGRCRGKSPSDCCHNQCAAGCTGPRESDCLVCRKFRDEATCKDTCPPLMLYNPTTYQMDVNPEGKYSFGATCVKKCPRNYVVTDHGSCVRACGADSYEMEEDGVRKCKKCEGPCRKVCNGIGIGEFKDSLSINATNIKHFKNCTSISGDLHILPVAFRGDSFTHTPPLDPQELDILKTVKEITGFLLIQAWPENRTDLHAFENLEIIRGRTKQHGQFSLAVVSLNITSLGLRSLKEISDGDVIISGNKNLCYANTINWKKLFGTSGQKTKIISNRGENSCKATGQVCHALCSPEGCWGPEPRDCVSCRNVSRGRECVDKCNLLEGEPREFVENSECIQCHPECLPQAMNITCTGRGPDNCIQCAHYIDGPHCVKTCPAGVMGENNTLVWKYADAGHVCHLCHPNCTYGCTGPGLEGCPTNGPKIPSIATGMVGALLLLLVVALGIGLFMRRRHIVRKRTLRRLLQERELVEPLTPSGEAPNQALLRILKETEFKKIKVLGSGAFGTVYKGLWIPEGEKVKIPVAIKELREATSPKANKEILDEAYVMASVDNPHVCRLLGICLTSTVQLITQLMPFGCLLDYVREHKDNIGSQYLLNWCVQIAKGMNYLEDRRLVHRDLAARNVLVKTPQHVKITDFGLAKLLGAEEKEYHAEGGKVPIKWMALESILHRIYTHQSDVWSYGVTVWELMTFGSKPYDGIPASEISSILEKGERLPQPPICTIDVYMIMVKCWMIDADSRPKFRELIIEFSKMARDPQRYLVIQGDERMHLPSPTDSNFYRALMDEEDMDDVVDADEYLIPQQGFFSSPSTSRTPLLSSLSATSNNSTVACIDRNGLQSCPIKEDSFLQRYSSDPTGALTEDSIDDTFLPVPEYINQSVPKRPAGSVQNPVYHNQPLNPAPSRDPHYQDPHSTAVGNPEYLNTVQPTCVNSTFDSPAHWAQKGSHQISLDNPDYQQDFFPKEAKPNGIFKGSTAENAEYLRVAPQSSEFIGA
insulin receptor tyrosine kinase, sequence (P06213 28-1382): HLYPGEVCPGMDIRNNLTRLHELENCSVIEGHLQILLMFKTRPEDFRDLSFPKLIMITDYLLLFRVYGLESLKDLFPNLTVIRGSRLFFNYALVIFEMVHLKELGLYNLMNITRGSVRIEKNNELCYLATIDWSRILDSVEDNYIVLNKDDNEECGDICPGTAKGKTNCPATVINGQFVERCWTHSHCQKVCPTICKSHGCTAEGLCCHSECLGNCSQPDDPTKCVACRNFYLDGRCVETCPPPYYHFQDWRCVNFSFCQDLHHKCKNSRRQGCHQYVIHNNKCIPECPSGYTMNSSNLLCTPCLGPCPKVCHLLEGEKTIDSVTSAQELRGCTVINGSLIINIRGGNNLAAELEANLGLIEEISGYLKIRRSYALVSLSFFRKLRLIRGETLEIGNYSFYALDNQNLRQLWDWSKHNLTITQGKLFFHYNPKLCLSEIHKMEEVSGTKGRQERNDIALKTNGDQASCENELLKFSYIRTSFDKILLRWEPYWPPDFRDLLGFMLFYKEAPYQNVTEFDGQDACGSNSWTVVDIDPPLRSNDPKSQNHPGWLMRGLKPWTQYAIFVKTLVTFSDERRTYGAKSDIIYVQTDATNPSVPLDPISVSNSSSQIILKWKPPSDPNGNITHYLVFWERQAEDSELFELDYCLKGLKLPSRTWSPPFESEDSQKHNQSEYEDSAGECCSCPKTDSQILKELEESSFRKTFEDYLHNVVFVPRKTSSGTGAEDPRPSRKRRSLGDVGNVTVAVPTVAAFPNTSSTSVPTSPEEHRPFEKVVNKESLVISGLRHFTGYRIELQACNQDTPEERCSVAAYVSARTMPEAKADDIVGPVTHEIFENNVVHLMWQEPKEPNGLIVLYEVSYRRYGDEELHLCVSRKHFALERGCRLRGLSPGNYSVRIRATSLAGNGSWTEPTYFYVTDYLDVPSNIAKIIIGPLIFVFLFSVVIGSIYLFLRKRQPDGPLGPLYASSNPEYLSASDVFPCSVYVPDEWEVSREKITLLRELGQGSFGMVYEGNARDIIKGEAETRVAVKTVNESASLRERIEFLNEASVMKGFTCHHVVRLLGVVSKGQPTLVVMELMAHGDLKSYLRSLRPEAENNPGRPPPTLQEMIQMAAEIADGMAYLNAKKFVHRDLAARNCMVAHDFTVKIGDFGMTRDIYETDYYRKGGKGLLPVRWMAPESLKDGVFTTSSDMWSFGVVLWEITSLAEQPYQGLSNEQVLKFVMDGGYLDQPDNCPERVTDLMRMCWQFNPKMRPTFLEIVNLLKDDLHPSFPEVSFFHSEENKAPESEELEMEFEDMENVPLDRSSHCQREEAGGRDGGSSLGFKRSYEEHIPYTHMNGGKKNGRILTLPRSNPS

Compound `COc1cc([C@@H]2c3cc4c(cc3[C@H](O)[C@H]3COC(=O)[C@H]23)OCO4)cc(OC)c1OC` [Podophyllotoxin, podophyllotoxin] has an IC50 (BE melanoma cells) of 50 nM, an IC50 (FM55 melanoma cells; FM55, Experiment 4 (Table 4), read-out: IC50 for viability of FM55 cells) of 50 nM and an IC50 (FM55 melanoma cells; FM55, melanoma, 48 h (Table 3), read-out: IC50 for cell viability) of 40 nM. For the same compound, the IC50 [1] was 70 nM, the IC50 [2] was 60 nM and the IC50 [3] was 3 nM. The IC50 [4] was 2 nM, the water solubility (Water solubility) was 100 to 200 µM and the “interference with the insulin receptor tyrosine kinase” value [5] was “do not interfere”. The “interference with tyrosine phosphorylation of the receptor of epidermal growth factor” value [6] was “Neither do they interfere”, the “interference with tyrosine phosphorylation of the receptor of platelet-derived growth factor” value [7] was “Neither do they interfere” and the “interference with tyrosine phosphorylation of the receptor of fibroblast growth factor” value [8] was “Neither do they interfere”. The “cell death in malignant cells (in words)” value (malignant cells) was “extensive cell death”, the effect on microtubules (microtubules) was “required μM concentrations” and the LD50 in rats (rats) was 14 mg/kg.
